The record followed here is ChEMBL document CHEMBL4811242, “Mechanistic selectivity investigation and 2D-QSAR study of some new antiproliferative pyrazoles and pyrazolopyridines as potential CDK2 inhibitors” (Eur J Med Chem, 2021).

Data set [1] has as its system HepG2. The data set is described as follows: Cytotoxicity against human HepG2 cells.
Data set [2] has as its system MCF7. The data set is described as follows: Cytotoxicity against human MCF7 cells.
Data set [3] concerns HepG2. The data set is described as follows: Induction of cell cycle arrest in human HepG2 cells assessed as accumulation at pre-G1 phase at IC50 after 48 hrs by propidium iodide staining based Flow cytometric analysis (reference value: 1.52%). It counts as functional.
In data set [4] the test system is HepG2. In words: Induction of apoptosis in human HepG2 cells assessed as fold increase in caspase-3 activation at IC50 by ELISA. It is filed as functional. A general note: An ELISA detects its analyte on a solid surface through an enzyme-linked reagent.
Data set [5] deals with Cyclin-dependent kinase 1/cyclin B1 (Homo sapiens, UniProt P06493). In words: Inhibition of CDK1/cyclin B (unknown origin). It is filed as protein-complex assay.
Chain of Cyclin-dependent kinase 1/cyclin B1 (P06493 whole entry): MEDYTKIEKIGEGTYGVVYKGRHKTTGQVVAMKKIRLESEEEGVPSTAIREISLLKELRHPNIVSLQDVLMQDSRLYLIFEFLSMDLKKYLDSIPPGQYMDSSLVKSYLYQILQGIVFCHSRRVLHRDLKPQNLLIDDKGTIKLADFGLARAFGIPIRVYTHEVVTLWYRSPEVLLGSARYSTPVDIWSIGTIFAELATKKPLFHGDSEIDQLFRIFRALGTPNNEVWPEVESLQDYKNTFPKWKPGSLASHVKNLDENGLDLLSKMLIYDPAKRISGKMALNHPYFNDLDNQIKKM
Chain of Cyclin-dependent kinase 1/cyclin B1 (P14635 whole entry, further chain): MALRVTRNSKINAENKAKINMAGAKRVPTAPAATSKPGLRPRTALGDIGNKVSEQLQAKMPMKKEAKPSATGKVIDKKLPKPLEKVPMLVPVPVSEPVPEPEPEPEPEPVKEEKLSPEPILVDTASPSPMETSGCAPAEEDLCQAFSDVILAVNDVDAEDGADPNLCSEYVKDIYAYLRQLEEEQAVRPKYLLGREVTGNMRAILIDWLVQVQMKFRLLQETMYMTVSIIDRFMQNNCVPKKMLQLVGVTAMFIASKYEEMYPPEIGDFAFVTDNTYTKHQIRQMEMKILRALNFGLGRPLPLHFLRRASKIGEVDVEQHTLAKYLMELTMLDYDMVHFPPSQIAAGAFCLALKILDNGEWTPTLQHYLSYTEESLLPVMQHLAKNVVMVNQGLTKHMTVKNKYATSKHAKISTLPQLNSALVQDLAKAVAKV
Data set [6] concerns HepG2. In words: Antiproliferative activity against human HepG2 cells assessed as inhibition of cell growth after 48 hrs by MTT assay. It counts as functional, cell-based. The conditions noted are these: HepG2, 48 h. In general terms: Formazan colour is commonly taken as a measure of viable cells.
Data set [7] deals with HepG2. The data set is described as follows: Induction of apoptosis in human HepG2 cells assessed as total apoptotic cells at IC50 after 48 hrs by Annexin V-FITC/propidium iodide staining based flow cytometric analysis (reference value: 1.52 %). It is filed as functional.
Data set [8] has as its target Cyclin-dependent kinase 4/cyclin D1 (Homo sapiens, UniProt P11802). The data set is described as follows: Inhibition of CDK4/cyclin D1 (unknown origin). It counts as protein-complex assay.
Data set [9] is described as follows: Cytotoxicity against human THLE2 cells assessed as reduction in cell viability by MTT assay. It counts as cell-based, THLE-2.
The target of data set [10] is Cyclin-dependent kinase 7/ cyclin H (Homo sapiens, UniProt P50613). In words: Inhibition of CDK7/cyclin H (unknown origin). It is filed as protein-complex assay.
Chain of Cyclin-dependent kinase 7/ cyclin H (P51946 whole entry): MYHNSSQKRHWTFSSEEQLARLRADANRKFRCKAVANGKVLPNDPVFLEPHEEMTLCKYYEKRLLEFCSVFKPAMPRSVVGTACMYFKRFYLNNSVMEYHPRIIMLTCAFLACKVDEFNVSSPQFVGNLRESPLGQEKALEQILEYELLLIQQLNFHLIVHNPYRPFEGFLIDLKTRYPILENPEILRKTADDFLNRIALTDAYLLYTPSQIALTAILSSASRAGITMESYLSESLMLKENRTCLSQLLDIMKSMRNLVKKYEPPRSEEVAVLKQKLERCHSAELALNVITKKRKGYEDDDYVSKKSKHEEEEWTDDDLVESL
Chain of Cyclin-dependent kinase 7/ cyclin H (P50613 whole entry): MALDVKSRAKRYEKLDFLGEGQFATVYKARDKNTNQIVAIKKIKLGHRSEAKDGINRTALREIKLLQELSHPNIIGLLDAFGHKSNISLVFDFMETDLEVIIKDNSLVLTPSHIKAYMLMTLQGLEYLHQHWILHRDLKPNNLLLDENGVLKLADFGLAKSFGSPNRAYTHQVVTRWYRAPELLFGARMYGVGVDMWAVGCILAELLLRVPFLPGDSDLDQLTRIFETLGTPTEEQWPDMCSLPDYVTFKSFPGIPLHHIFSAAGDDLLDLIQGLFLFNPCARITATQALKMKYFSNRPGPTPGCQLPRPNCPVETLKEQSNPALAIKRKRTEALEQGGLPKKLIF
Data set [11] concerns MCF7. In words: Antiproliferative activity against human MCF7 cells assessed as inhibition of cell growth after 48 hrs by MTT assay. It counts as functional, cell-based. As to conditions: MCF7, 48 h.
Data set [12] has as its system HepG2. In words: Induction of apoptosis in human HepG2 cells assessed as early apoptotic cells at IC50 after 48 hrs by Annexin V-FITC/propidium iodide staining based flow cytometric analysis (reference value: 0.38 %). It is filed as functional.
Data set [13] is described as follows: Selectivity index, ratio of CC50 for human THLE2 cells to IC50 for human HepG2 cells. It is filed as toxicity. The conditions noted are these: THLE2 cells and HepG2 cells, read-out: Ratio CC50/IC50.
For data set [14], the system named is HepG2. The data set is described as follows: Induction of cell cycle arrest in human HepG2 cells assessed as accumulation at G2/M phase at IC50 after 48 hrs by propidium iodide staining based Flow cytometric analysis (reference value: 7.34%). It is filed as functional.
Data set [15] has as its system HepG2. In words: Induction of cell cycle arrest in human HepG2 cells assessed as accumulation at S phase at IC50 after 48 hrs by propidium iodide staining based Flow cytometric analysis (reference value: 45.37%). It is filed as functional. (In general: Flow cytometry measures light scatter and fluorescence of single cells or particles in a stream.)
Data set [16] deals with HepG2. In words: Induction of apoptosis in human HepG2 cells assessed as caspase-3 concentration at IC50 by ELISA (reference value: 0.03822 +/- 0.0029 ng/ml). It is filed as functional.
Data set [17] relates to HepG2. In words: Induction of apoptosis in human HepG2 cells assessed as late apoptotic cells at IC50 after 48 hrs by Annexin V-FITC/propidium iodide staining based flow cytometric analysis (reference value: 0.18 %). It counts as functional.
In data set [18] the test system is HepG2. The data set is described as follows: Induction of cell cycle arrest in human HepG2 cells assessed as accumulation at G0/G1 phase at IC50 after 48 hrs by propidium iodide staining based Flow cytometric analysis (reference value: 47.29%). It counts as functional.
Another data set has as its target CDK2/Cyclin A2 (Homo sapiens, UniProt P24941). In words: Inhibition of CDK2/Cyclin A2 (unknown origin) after 10 mins by ADP-Glo reagent based assay. It counts as protein-complex assay.
Data set [19] in a line: Cytotoxicity against human MCF10A cells assessed as reduction in cell viability by MTT assay. It is filed as cell-based, MCF-10A.
Data set [20] can be described thus: Selectivity index, ratio of CC50 for human MCF10A cells to IC50 for human MCF7 cells. It counts as toxicity. As to conditions: MCF10A cells and MCF7 cells, read-out: Ratio CC50/IC50.

SMILES strings stand for the structures.

Chain of Cyclin-dependent kinase 4/cyclin D1 (P11802 whole entry): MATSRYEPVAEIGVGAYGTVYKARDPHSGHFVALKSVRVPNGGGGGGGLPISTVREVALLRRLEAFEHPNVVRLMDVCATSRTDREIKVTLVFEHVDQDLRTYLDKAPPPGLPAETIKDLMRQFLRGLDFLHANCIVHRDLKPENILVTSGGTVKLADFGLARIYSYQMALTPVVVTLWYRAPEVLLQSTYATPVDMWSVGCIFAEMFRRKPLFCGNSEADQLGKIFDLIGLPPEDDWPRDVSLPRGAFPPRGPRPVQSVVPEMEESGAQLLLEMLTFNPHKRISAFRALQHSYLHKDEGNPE
Chain of Cyclin-dependent kinase 4/cyclin D1 (P24385 whole entry, further chain): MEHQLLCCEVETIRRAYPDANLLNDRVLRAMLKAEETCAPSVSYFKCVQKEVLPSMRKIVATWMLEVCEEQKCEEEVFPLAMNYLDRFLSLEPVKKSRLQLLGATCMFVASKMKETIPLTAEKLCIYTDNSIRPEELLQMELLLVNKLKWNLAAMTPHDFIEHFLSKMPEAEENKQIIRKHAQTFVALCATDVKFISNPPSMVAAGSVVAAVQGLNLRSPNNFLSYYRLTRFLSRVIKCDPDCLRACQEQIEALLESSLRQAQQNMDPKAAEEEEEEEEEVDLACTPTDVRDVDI

`CC(C)c1cnn2c(NCc3ccccc3)cc(N[C@@H](CO)[C@H](O)CO)nc12`: the IC50 in the data set with HepG2 [1] was 1000 nM; in the data set on MCF7 [2], 300 nM.
On to `COc1ccc(-c2nc3c(c(-c4ccccc4)nn3-c3ccccc3)c(-c3ccc(N4CCN(C)CC4)cc3)c2C#N)cc1`, for which the Activity in the data set with HepG2 [3] turned out to be 22.15%; with HepG2 [7], 22.2%; with HepG2 [12] it was 6.07%; in the data set with HepG2 [14], 3.62%; in the data set with HepG2 [15] it was 48.36%; with HepG2 [16] it was 0.3714 ng/mL. Further, the figures for the Activity in the data set on HepG2 [17] and in the data set on HepG2 [18] were 11.17% and 48.02%, respectively. The “fold change (FC)” value with HepG2 [4] was 10. Besides, the IC50 in data set [5] was found to be 209 nM; in the data set with HepG2 [6], 1330 nM; in data set [8], 104000 nM; in data set [10], 225 nM; in the data set on MCF7 [11] it was 2650 nM; against CDK2/Cyclin A2 it was 66.5 nM. The Ki in data set [5] amounted to 127 nM; in data set [8] it was 56900 nM; in data set [10], 144 nM; at CDK2/Cyclin A2 it was 40 nM. Besides, in [9], the CC50 stood at 37500 nM. In addition, the selectivity ratio in data set [13] was determined as 28.2.
For the compound `Fc1ccc(-c2ccnc3c2c(-c2ccccc2)nn3-c2ccccc2)cc1`, the Activity was found to be 32.19% with HepG2 [3]; 32.19% in the data set on HepG2 [7]; 6.15% in the data set on HepG2 [12]; 37.64% in the data set with HepG2 [14]; 23.89% in the data set with HepG2 [15]; 0.3872 ng/mL with HepG2 [16]. Moreover, the Activity in the data set on HepG2 [17] is 17.43%; with HepG2 [18], 38.47%. Besides, the “fold change (FC)” value with HepG2 [4] worked out at 10. Also, the IC50 in [5] was 1350 nM; with HepG2 [6], 1570 nM; in data set [8], 6920 nM; in data set [10] it was 1990 nM; with MCF7 [11], 1570 nM; against CDK2/Cyclin A2, 41.5 nM. The inhibitory constant (Ki) stood at 823 nM in data set [5], 3780 nM in [8], 1270 nM in [10] and 25 nM at CDK2/Cyclin A2. For the same compound, the CC50 in data set [9] was 19700 nM; in data set [19], 28300 nM. Besides, the selectivity ratio in data set [13] was determined as 12.5; in data set [20], 18.

Broadly, the IC50 is the concentration at which inhibition is half-maximal. For orientation: Ki means the dissociation constant of the complex between target and ligand, obtained from inhibition or displacement. A low value points to higher affinity. What is called CC50 is the concentration that lowers cell viability or growth by half.
